In patent US20100331410A1, “Biaryl Amides” (Asterand UK Limited, priority 2008, published 2010) one finds melting point data, which are given here for 6 compounds.

Usually melting point stands for the temperature, or range, at which the solid turns liquid. `NC(=O)COc1cccc(NC(=O)c2cc(-c3cccc(F)c3)ccc2F)c1` [Compound 3, 3-[(3′-Fluoro-4-fluorobiphenyl-3-carbonyl)amino]phenoxyacetamide] displayed a melting point of 203 to 206 °C.

Compound `COC(=O)/C=C/c1cccc(NC(=O)c2cc(-c3cccc(F)c3)ccc2F)c1` [Compound 6, 3-[(3′-Fluoro-4-fluorobiphenyl-3-carbonyl)amino]cinnamic acid, methyl ester] yielded a melting point of 144 to 145 °C.

Turning to `NC(=O)/C=C/c1cccc(NC(=O)c2cc(-c3cccc(F)c3)ccc2F)c1` [Compound 7, 3-[(3′-Fluoro-4-fluorobiphenyl-3-carbonyl)amino]cinnamamide], the melting point is 216 to 218 °C.

With `O=C(COc1cccc(NC(=O)c2cc(-c3cccc(F)c3)ccc2F)c1)OCCO` [Compound 1, 3-[(3′-Fluoro-4-fluorobiphenyl-3-carbonyl)amino]phenoxyacetic acid, ethylene glycol ester], the melting point lay within 135 to 137 °C.

For `COC(=O)COc1cccc(NC(=O)c2cc(-c3cccc(F)c3)ccc2F)c1` [Compound 4, 3-[(3′-Fluoro-4-fluorobiphenyl-3-carbonyl)amino]phenoxyacetic acid, methyl ester], the melting point was in the range of 103 to 104 °C.

The compound `CC(C)OC(=O)/C=C/c1cccc(NC(=O)c2cc(-c3cccc(F)c3)ccc2F)c1` [Compound 5, 3-[(3′-Fluoro-4-fluorobiphenyl-3-carbonyl)amino]cinnamic acid, isopropyl ester] came in with a melting point of 154 to 155 °C.
